Values joined by “and” are separate entries in the source; they are usually repeats but may differ in a detail not shown here. Identical values can stand only once.
Experiments:
[1] = biological target: SARS-CoV-2 NSP3 macrodomain (Mac1), P43 crystal form (Severe acute respiratory syndrome coronavirus 2, UniProt P0DTD1); format: binding; conditions: for PanDDA run, DMSO background map: 1-BDC / 1-BDC (PanDDA run, DMSO background map): event 1; for 1-BDC: PanDDA background density correction; for Hit (PanDDA run, overall): P43 crystals; for Total number of conformations: ligand conformations modeled in Mac1 crystal structure; for 2*(1-BDC) (%): occupancy estimate from PanDDA BDC; for X-ray crystallography: Binding site: site where the ligand is bound in the X-ray crystal structure
[2] = biological target: SARS-CoV-2 NSP3 macrodomain (Mac1) (Severe acute respiratory syndrome coronavirus 2, UniProt P0DTD1); assay: biochemical; format: binding; conditions: for Hill slope: HTRF dose-response fit, Mac1; for SARS CoV-2 macrodomain HTRF assay: Hillslope: dose-response fit

SMILES | Occupancy difference (refined_occupancy - 2*(1-BDC)) [1] | Refined ligand occupancy (%) [1] | PanDDA run, DMSO background map: 1-BDC [1] | 1-BDC [1] | Hit (PanDDA run, overall) ([1]; crystal soak 10 mM) | Hit (PanDDA run, DMSO background map) ([1]; crystal soak 10 mM) | 1-BDC (PanDDA run, DMSO background map) ([1]; crystal soak 10 mM) | Total number of conformations [1] | 2*(1-BDC) (%) [1] | X-ray crystallography: Binding site [1] | Hill slope [2] | SARS CoV-2 macrodomain HTRF assay: Hillslope [2] | Modeling comment (PanDDA run, overall) ([1]; crystal soak 10 mM) | Comment ([1]; comment on ligand modeling / Phe132 loop density)
CC1CCCC(O)(CNc2ncnc3[nH]ccc23)C1 (centres unmarked) [AVI-4307] | 0 | 34% | 0.26 | 0.17 | TRUE | TRUE | 0.17 | 1 | 34% | Adenosine | 1.0 | 1.0 | – | –
OC1(CNc2ncnc3[nH]ccc23)CCC(F)(F)CC1 [AVI-4308] | 0 | 30% | 0.16 | 0.15 | TRUE | TRUE | 0.15 | 1 | 30% | Adenosine | 1.2 | 1.2 | – | –
OC1(CNc2ncnc3[nH]ccc23)CCCC(C(F)(F)F)C1 (centres unmarked) [AVI-4309] | 0 | 40% | 0.2 | 0.2 | TRUE | TRUE | 0.21 | 1 | 40% | Adenosine | 1.4 | 1.4 | – | –
CC1(C)CCC(O)(CNc2ncnc3[nH]ccc23)CC1 [AVI-4310] | – | – | 0.17 | – | TRUE | TRUE | 0.14 | – | – | – | 1.3 | 1.3 | Weak density, not modeled | –
OC1(CNc2ncnc3[nH]ccc23)CCCOC1 (centres unmarked) [AVI-4311] | 0 | 50% | 0.3 | 0.25 | TRUE | TRUE | 0.25 | 1 | 50% | Adenosine | 1.4 | 1.4 | – | –
CC1CCC(O)(CNc2ncnc3[nH]ccc23)CC1 (centres unmarked) [AVI-4312] | 0 | 44% | 0.22 and 0.3 | 0.22 | – | – | – | 1 | 44% | Adenosine | 1.2 | 1.2 | – | –
OC1(CNc2ncnc3[nH]ccc23)COC2CC1C2 (centres unmarked) [AVI-4313] | 0 | 38% | 0.19 and 0.2 | 0.19 | – | – | – | 1 | 38% | Adenosine | 1.2 | 1.2 | – | –
OC1(CNc2ncnc3[nH]ccc23)CCOCC1 [AVI-4314] | 0 | 30% | 0.15 and 0.16 | 0.15 | – | – | – | 1 | 30% | Adenosine | 1.2 | 1.2 | – | –
O=S1(=O)CCCC(O)(CNc2ncnc3[nH]ccc23)C1 (centres unmarked) [AVI-4317] | 14 | 100% | 0.43 and 0.45 | 0.43 | – | – | – | 1 | 86% | Adenosine | 1.2 | 1.2 | – | High occupancy, use manual refinement, DMSO
CN(CC1(O)CCOCC1)c1ncnc2[nH]ccc12 [AVI-4318] | 0 | 50% | 0.26 and 0.25 | 0.25 | – | – | – | 1 | 50% | Adenosine | 1.2 | 1.2 | – | –
